Measured values taken from PubChem BioAssay (NCI).
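Assay format: 96-well plates, 48-hour exposure. Here, GI50 denotes the concentration required for 50% inhibition of growth. TGI denotes the concentration required for complete inhibition of growth.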

Columns and labels:
Test in all cases: NCI tumour cell line growth inhibition, 48 h
[1] = test system: ACHN renal
[2] = test system: BT-549 breast
[3] = test system: HCT-15 colon
[4] = test system: M14 melanoma
[5] = test system: MDA-MB-435
[6] = test system: MDA-N
[7] = test system: T-47D breast
[8] = test system: TK-10 renal
[9] = test system: CAKI-1 renal
[10] = test system: NCI/ADR-RES ovarian
[11] = test system: SN12K1 renal
[12] = test system: LXFL 529 NSCLC
[13] = test system: XF 498 CNS
[14] = test system: NCI-H522 lung
[15] = test system: P388 leukemia
[16] = test system: P388/ADR leukemia

Structure (SMILES)	TGI [1]	TGI [2]	TGI [3]	TGI [4]	TGI [5]	TGI [6]	TGI [7]	TGI [8]	TGI [9]	TGI [10]	TGI [11]	TGI [12]	TGI [13]	TGI [14]	TGI [15]	TGI [16]	GI50 [3]	GI50 [14]	GI50 [15]	GI50 [11]
CCCc1c(-c2ccccc2)[nH]c2ccccc2c1=O	> 100 µM	> 100 µM	> 100 µM	> 100 µM	> 100 µM	> 100 µM	99.8 µM	> 100 µM												
Nc1ccn(C2C=C(CO)C(O)C2O)c(=O)c1 (stereo not given)			> 625 µM						> 625 µM	> 625 µM	> 625 µM									
COc1nc(=O)n(COC(CO)CN2C(=O)c3ccccc3C2=O)cc1Cc1cccc(OCc2ccccc2)c1 (stereo not given)	59.8 µM		> 100 µM	43.6 µM				> 100 µM				> 100 µM								
O=C1OC2(CC1C1(O)C3CC4CC(C3)CC1C4)C1CC3CC(C1)CC2C3 (stereo not given)	> 100 µM		> 100 µM	> 100 µM				> 100 µM				> 100 µM	> 100 µM							
C=CC1(NC(=O)c2ccccc2)CCC(C(C)(C)C)CC1 (stereo not given)			> 85 µM							76.1 µM	> 96.7 µM		> 70.6 µM	94 µM	38.4 µM	> 77.4 µM				
CN(C)CCCN1c2ccccc2Sc2ccc3ccccc3c21	20.9 µM	26.3 µM	19.2 µM	3.3 µM	10.4 µM	15.1 µM	5.65 µM	17.7 µM	18.1 µM	22.5 µM				22.8 µM						
N#C[C@H](OC1OC(COC2OC(CO)C(O)C(O)C2O)C(O)C(O)C1O)c1ccccc1 (stereo not given in full)			> 250 µM						> 250 µM	> 250 µM	> 250 µM		> 25 µM	> 250 µM	> 250 µM	> 158 µM				
CCN(CC)c1ccc2cc(C(=O)Nc3ccc4[nH]c(C(=O)N5C[C@@H](CCl)c6c5cc(OC(=O)Nc5ccccc5)c5[nH]cc(C)c65)cc4c3)oc2c1			> 1000 µM						9.11e-05 µM		387 µM			> 1000 µM		> 1000 µM	539 µM	438 µM	89.4 µM	128 µM
O=C(CCl)NNC1=Nc2ccc(Cl)cc2SC1			3.97 µM							3.79 µM	7.94 µM		3.92 µM	1.85 µM	1.07 µM	3.52 µM				
